Results: patent US20110160196A1, “FACTOR XA INHIBITORS” (Millennium Pharmaceuticals, Inc., priority 2007, published 2011)

Each compound was assayed against T1, human plasma protein factor Xa (Homo sapiens, UniProt P00742) (assay: Factor Xa IC50 determination (cleavage of paranitroanilide substrate S-2765)). Conditions: factor Xa 1 nM, S-2765 100 μM, Tris buffered saline pH 7.4, read at 405 nm.
T1 construct: The human plasma protein factor Xa was purchased; purchased Haematologic Technologies (Essex Junction, Vt.); host or cells: human plasma
T1 sequence (P00742 235-488 limits assumed): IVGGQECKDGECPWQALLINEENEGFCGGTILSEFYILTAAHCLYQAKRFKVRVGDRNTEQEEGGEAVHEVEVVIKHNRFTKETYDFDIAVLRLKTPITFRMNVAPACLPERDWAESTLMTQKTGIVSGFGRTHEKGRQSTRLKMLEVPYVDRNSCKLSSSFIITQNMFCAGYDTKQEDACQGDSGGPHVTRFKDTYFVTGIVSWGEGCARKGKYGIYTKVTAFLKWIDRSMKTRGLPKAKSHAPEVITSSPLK
T1 sequence (P00742 41-179 partner limits assumed): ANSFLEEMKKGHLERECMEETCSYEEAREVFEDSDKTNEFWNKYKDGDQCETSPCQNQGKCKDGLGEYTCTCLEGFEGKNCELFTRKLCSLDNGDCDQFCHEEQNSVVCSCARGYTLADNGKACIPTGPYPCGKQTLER
Format: biochemical
From the text: This example illustrates methods for evaluating the compounds of the invention, along with results obtained for such assays. The in vitro and in vivo human Factor Xa activities of the inventive compounds can be determined by various procedures known in the art, such as a test for their ability to inhibit the activity of human plasma Factor Xa. […] The IC50 value is the concentration (in nM) of the compound required to provide 50% inhibition of human Factor Xa proteolytic activity.
An in vitro assay for detecting and measuring inhibition activity against Factor Xa is as follows:
The substrate S-2765 (Z-D-Arg-Gly-Arg-pNA.HCl) was obtained from Diapharma (West Chester, Ohio).
The human plasma protein factor Xa was purchased from Haematologic Technologies (Essex Junction, Vt.).
All assays, which are performed in 96-well microtiter plates, measure proteolytic activity of the enzyme (factor Xa) by following cleavage of a paranitroanilide peptide substrate. The assay buffer used for proteolytic assays was Tris buffered saline (20 mM Tris, 150 mM NaCl, 5 mM CaCl2, 0.1% Bovine serum albumin (BSA), 5% Dimethly Sulfoxide (DMSO) pH 7.4). In a 96-well microtiter plate, inhibitor was serially diluted to give a range of final concentrations from 0.01 nM to 10 μM. Duplicate sets of wells were assayed and control wells without inhibitor were included. Enzyme was added to each well, (factor Xa concentration=1 nM), the plate was shaken for 5 seconds and then incubated for 5 minutes at room temperature. S-2765 was added (100 μM final) and the plate was shaken for 5 seconds (final volume in each well was 200 μl). The degree of substrate hydrolysis was measured at 405 nm on a Thermomax plate reader (Molecular Devices, Sunnyvale, Calif.) for 2 minutes. The initial velocities of substrate cleavage (mOD/min), for each range of inhibitor concentrations, were fitted to a four parameter equation using Softmax data analysis software. The parameter C, derived from the resulting curve-fit, corresponded to the concentration for half maximal inhibition (IC50).

SMILES	IC50
CN(C)C1CCN(c2cc(-n3ccccc3=O)ccc2-n2cc(CNC(=O)c3ccc(Cl)s3)nn2)CC1 [Compound 16, 5-Chloro-N-((1-(2-(4-(dimethylamino)piperidin-1-yl)-4-(2-oxopyridin-1(2H)-yl)phenyl)-1H-1,2,3-triazol-4-yl)methyl)thiophene-2-carboxamide]	≤ 100 nM
NC1CCN(c2cc(-n3ccccc3=O)ccc2-n2cc(CNC(=O)c3ccc(Cl)s3)nn2)CC1 [Compound 17, N-((1-(2-(4-Aminopiperidin-1-yl)-4-(2-oxopyridin-1(2H)-yl)phenyl)-1H-1,2,3-triazol-4-yl)methyl)-5-chlorothiophene-2-carboxamide]	≤ 100 nM
CC(=O)NC1CCN(c2cc(-n3ccccc3=O)ccc2-n2cc(CNC(=O)c3ccc(Cl)s3)nn2)CC1 [Compound 18, N-((1-(2-(4-Acetamidopiperidin-1-yl)-4-(2-oxopyridin-1(2H)-yl)phenyl)-1H-1,2,3-triazol-4-yl)methyl)-5-chlorothiophene-2-carboxamide]	≤ 100 nM
NC(=O)NC1CCN(c2cc(-n3ccccc3=O)ccc2-n2cc(CNC(=O)c3ccc(Cl)s3)nn2)CC1 [Compound 20, 1-(1-(2-(4-((2-Chlorothiophene-5-carboxamido)methyl)-1H-1,2,3-triazol-1-yl)-5-(2-oxopyridin-l(2H)-yl)phenyl)piperidin-4-yl)urea]	≤ 100 nM
O=C(NCc1cn(-c2ccc(-n3ccccc3=O)cc2N2CCC(O)CC2)nn1)c1ccc(Cl)s1 [Compound 21, 5-Chloro-N-((1-(2-(4-hydroxypiperidin-1-yl)-4-(2-oxopyridin-1(2H)-yl)phenyl)-1H-1,2,3-triazol-4-yl)methyl)thiophene-2-carboxamide]	≤ 100 nM
O=C(NCc1cn(-c2ccc(-n3ccccc3=O)cc2N2CCC[C@@H](O)C2)nn1)c1ccc(Cl)s1 [Compound 22, 5-Chloro-N-((1-(2-((R)-3-hydroxypiperidin-1-yl)-4-(2-oxopyridin-1(2H)-yl)phenyl)-1H-1,2,3-triazol-4-yl)methyl)thiophene-2-carboxamide]	≤ 100 nM
O=C(NCc1cn(-c2ccc(-n3ccccc3=O)cc2N2CCC[C@H](O)C2)nn1)c1ccc(Cl)s1 [Compound 23, 5-Chloro-N-((1-(2-((S)-3-hydroxypiperidin-1-yl)-4-(2-oxopyridin-1(2H)-yl)phenyl)-1H-1,2,3-triazol-4-yl)methyl)thiophene-2-carboxamide]	≤ 100 nM
O=C(NCc1cn(-c2ccc(-n3ccccc3=O)cc2N2CCC(C(=O)O)CC2)nn1)c1ccc(Cl)s1 [Compound 24, 1-(2-(4-((2-Chlorothiophene-5-carboxamido)methyl)-1H-1,2,3-triazol-1-yl)-5-(2-oxopyridin-1(2H)-yl)phenyl)piperidine-4-carboxylic acid]	≤ 100 nM
NC(=O)C1CCN(c2cc(-n3ccccc3=O)ccc2-n2cc(CNC(=O)c3ccc(Cl)s3)nn2)CC1 [Compound 25, 1-(2-(4-((2-Chlorothiophene-5-carboxamido)methyl)-1H-1,2,3-triazol-1-yl)-5-(2-oxopyridin-1(2H)-yl)phenyl)piperidine-4-carboxamide]	≤ 100 nM
O=C(NCc1cn(-c2ccc(-n3ccccc3=O)cc2NCCO)nn1)c1ccc(Cl)s1 [Compound 26, 5-Chloro-N-((1-(2-(2-hydroxyethylamino)-4-(2-oxopyridin-1(2H)-yl)phenyl)-1H-1,2,3-triazol-4-yl)methyl)thiophene-2-carboxamide]	≤ 100 nM
CN(CCO)c1cc(-n2ccccc2=O)ccc1-n1cc(CNC(=O)c2ccc(Cl)s2)nn1 [Compound 28, 5-Chloro-N-((1-(2-((2-hydroxyethyl)(methyl)amino)-4-(2-oxopyridin-1(2H)-yl)phenyl)-1H-1,2,3-triazol-4-yl)methyl)thiophene-2-carboxamide]	≤ 100 nM
COCCN(C)c1cc(-n2ccccc2=O)ccc1-n1cc(CNC(=O)c2ccc(Cl)s2)nn1 [Compound 29, 5-Chloro-N-((1-(2-((2-mcthoxyethyl)(methyl)amino)-4-(2-oxopyridin-1(2H)-yl)phenyl)-1H-1,2,3-triazol-4-yl)methyl)thiophene-2-carboxamide]	≤ 100 nM
NCCNc1cc(-n2ccccc2=O)ccc1-n1cc(CNC(=O)c2ccc(Cl)s2)nn1 [Compound 30, N-((1-(2-(2-Aminoethylamino)-4-(2-oxopyridin-1(2H)-yl)phenyl)-1H-1,2,3-triazol-4-yl)methyl)-5-chlorothiophene-2-carboxamide]	≤ 100 nM
O=C(NCc1cn(-c2ccc(-n3ccccc3=O)cc2-n2ccnc2)nn1)c1ccc(Cl)s1 [Compound 42, N-((1-(2-(1H-Imidazol-1-yl)-4-(2-oxopyridin-1(2H)-yl)phenyl)-1H-1,2,3-triazol-4-yl)methyl)-5-chlorothiophene-2-carboxamide]	≤ 100 nM
O=C(NCc1cn(-c2ccc(-n3ccccc3=O)cc2N2CCCC2=O)nn1)c1ccc(Cl)s1 [Compound 43, 5-Chloro-N-((1-(4-(2-oxopyridin-1(2H)-yl)-2-(2-oxopyrrolidin-1-yl)phenyl)-1H-1,2,3-triazol-4-yl)methyl)thiophene-2-carboxamide]	≤ 100 nM
O=C(NCc1cn(-c2ccc(-n3ccccc3=O)cc2[N+](=O)[O-])nn1)c1ccc(Cl)s1 [Compound 44, 5-ChIoro-N-((1-(2-nitro-4-(2-oxopyridin-1(2H)-yl)phenyl)-1H-1,2,3-triazol-4-yl)methyl)thiophene-2-carboxamide]	≤ 100 nM
Nc1cc(-n2ccccc2=O)ccc1-n1cc(CNC(=O)c2ccc(Cl)s2)nn1 [Compound 45, N-((1-(2-Amino-4-(2-oxopyridin-1(2H)-yl)phenyl)-1H-1,2,3-triazol-4-yl)methyl)-5-chlorothiophene-2-carboxamide]	≤ 100 nM
CSc1cc(-n2ccccc2=O)ccc1-n1cc(CNC(=O)c2ccc(Cl)s2)nn1 [Compound 50, 5-Chloro-N-((1-(2-(methylthio)-4-(2-oxopyridin-1(2H)-yl)phenyl)-1H-1,2,3-triazol-4-yl)methyl)thiophene-2-carboxamide]	≤ 100 nM
C[S+]([O-])c1cc(-n2ccccc2=O)ccc1-n1cc(CNC(=O)c2ccc(Cl)s2)nn1 (stereo not drawn) [Compound 51, 5-Chloro-N-((1-(2-(methylsulfoxy)-4-(2-oxopyridin-1(2H)-yl)phenyl)-1H-1,2,3-triazol-4-yl)methyl)thiophene-2-carboxamide]	≤ 100 nM
CS(=O)(=O)c1cc(-n2ccccc2=O)ccc1-n1cc(CNC(=O)c2ccc(Cl)s2)nn1 [Compound 52, 5-Chloro-N-((1-(2-(methylsulfonyl)-4-(2-oxopyridin-1(2H)-yl)phenyl)-1H-1,2,3-triazol-4-yl)methyl)thiophene-2-carboxamide]	≤ 100 nM
NCCSc1cc(-n2ccccc2=O)ccc1-n1cc(CNC(=O)c2ccc(Cl)s2)nn1 [Compound 53, N-((1-(2-(2-Aminoethylthio)-4-(2-oxopyridin-1(2H)-yl)phenyl)-lH-1,2,3-triazol-4-yl)methyl)-5-chlorothiophene-2-carboxamide]	≤ 100 nM
NCC[S+]([O-])c1cc(-n2ccccc2=O)ccc1-n1cc(CNC(=O)c2ccc(Cl)s2)nn1 (stereo not drawn) [Compound 54, N-((1-(2-(2-Aminoethylsulfoxy)-4-(2-oxopyridin-1(2H)-yl)phenyl)-1H-1,2,3-triazol-4-yl)methyl)-5-chlorothiophene-2-carboxamide]	≤ 100 nM
COc1cc(-n2ccccc2=O)ccc1-n1cc(CNC(=O)c2ccc(Cl)s2)nn1 [Compound 56, 5-Chloro-N-((1-(2-methoxy-4-(2-oxopyridin-1(2H)-yl)phenyl)-1H-1,2,3-triazol-4-yl)methyl)thiophene-2-carboxamide]	≤ 100 nM
O=C(NCc1cn(-c2ccc(-n3ccccc3=O)cc2OC2CCNCC2)nn1)c1ccc(Cl)s1 [Compound 57, 5-Chloro-N-((1-(4-(2-oxopyridin-1(2H)-yl)-2-(piperidin-4-yloxy)phenyl)-1H-1,2,3-triazol-4-yl)methyl)thiophene-2-carboxamide]	≤ 100 nM
O=C(NCc1cn(-c2ccc(-n3ccccc3=O)cc2Oc2ccncc2)nn1)c1ccc(Cl)s1 [Compound 63, 5-Chloro-N-((1-(4-(2-oxopyridin-1(2H)-yl)-2-(pyridin-4-yloxy)phenyl)-1H-1,2,3-triazol-4-yl)methyl)thiophene-2-carboxamide]	≤ 100 nM
O=C(NCc1cn(-c2ccc(-n3ccccc3=O)cc2Oc2cccnc2)nn1)c1ccc(Cl)s1 [Compound 64, 5-Chloro-N-((1-(4-(2-oxopyridin-1(2H)-yl)-2-(pyridin-3-yloxy)phenyl)-1H-1,2,3-triazol-4-yl)methyl)thiophene-2-carboxamide]	≤ 100 nM
O=C(NCc1cn(-c2ccc(-n3ccccc3=O)cc2OCCCN2C(=O)c3ccccc3C2=O)nn1)c1ccc(Cl)s1 [Compound 67, 5-Chloro-N-((1-(2-(3-(1,3-dioxoisoindolin-2-yl)propoxy)-4-(2-oxopyridin-1(2H)-yl)phenyl)-1H-1,2,3-triazol-4-yl)methyl)thiophene-2-carboxamide]	≤ 100 nM
